Results: article PMC9019904, “AD Informer Set: Chemical tools to facilitate Alzheimer's disease drug discovery” (Alzheimer's & Dementia : Translational Research & Clinical …, 2022)
≈ marks a conversion by molar mass, not a printed value. Read-outs that look alike come from different tables or passages of the source.

What was measured:
[1] = system: BV2 (mouse microglia) cell line; experiment: pHrodo-myelin phagocytosis/cell viability high content imaging assay: phagocytosis signal; format: cell-based
How it was run: (§1)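 Phagocytosis and cell viability were measured together by high content imaging about 22 hours after pHrodo-myelin addition. Three measurements were extracted from the images. Intensity increase and decrease were taken as early and later apoptosis, respectively.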

[2] = system: protein product expressed by the gene target; settings: cited from earlier work
physchem = settings: pH 7.4, aqueous buffer, kinetic from dmso stock
cellular system = settings: cited from earlier work
[3] = system: HMC3 (human microglia) cell line; experiment: pHrodo-myelin phagocytosis/cell viability high content imaging assay: phagocytosis signal; format: cell-based
How it was run: as §1

[4] = system: BV2 (mouse microglia) cell line; experiment: pHrodo-myelin phagocytosis/cell viability high content imaging assay: viability (cell count, nuclear area, nuclear intensity)
How it was run: (§2)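 Viability was read as total cell count per well by high-content imaging, with mean average nuclear intensity per cell profiling apoptosis (rise early, fall late). Compounds were given at 10 μM for 48 h, pHrodo-myelin being added for the final 20 h. Values are means of two points as % untreated control.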

[5] = system: HMC3 (human microglia) cell line; experiment: as above; settings: HMC3, 10 μM
How it was run: as §2

[6] = published cellular activity at 10 μM

## CN(C)CC1CCOC1(c1ccccc1)c1ccccc1.Cl (stereo not shown) [AN2/AVex-73 HCl (Blarcamesine)]
[1]; BV2 cells, 10 μM
  Stimulation of mouse microglial phagocytosis at 10 μM (>150% control): Y (The compound was found to stimulate phagocytosis (response threshold: >150% control) when murine immortalized microglial cells were dosed at 10 μM (Y: yes))
[2]; SIG-1R (genes listed: SIG-1R and CHRM2), ref PubMed 20829307, 29127580
  Reported on-target biochemical potency (nM): SIG-1R = 860 nM
physchem
  solubility kinetic: 174 µM
Cellular system; [6]
  Reported as cell active (<10 μM): Y (Published data supports that the compound is active in a cellular system when dosed at 10 μM (Y/N))

## CN(C)CCCN1c2ccccc2Sc2ccc(Cl)cc21 [Chlorpromazine]
[2]
  Reported on-target biochemical potency: >1000 nM
physchem
  solubility kinetic: 102 µM (≈ 32.6 µg/mL)
Cellular system
  Reported as cell active (<10 μM): N

## c1cn2cc(-c3ccc4cn[nH]c4c3)nc(Nc3ccc(N4CCOCC4)cc3)c2n1 [Entospletinib (GS-9973)]
[1]; BV2 cells, 10 μM
  Inhibition of mouse microglial phagocytosis at 10 μM (<70% control): Y (The compound was found to inhibit phagocytosis (response threshold: <70% control) when murine immortalized microglial cells were dosed at 10 μM (Y: yes))
[3]; HMC3 cells, 10 μM
  Inhibition of human microglial phagocytosis at 10 μM (<70% control): Y (The compound was found to inhibit phagocytosis (response threshold: <70% control) when human immortalized microglial cells were dosed at 10 μM (Y: yes))
[4]; BV2 cells, 10 μM, cell count <70% control
  Mouse microglial cytotoxicity at 10 μM (<70% control): Y (The compound was found to be cytotoxic (cell count threshold: <70% control) when murine immortalized microglial cells were dosed at 10 μM (Y: yes))
[2]
  Reported on-target biochemical potency: 7.7 nM
physchem
  solubility kinetic: 0.5 µM (≈ 0.206 µg/mL)
Cellular system; [6]
  Reported as cell active (<10 μM): Y (Published data supports that the compound is active in a cellular system when dosed at 10 μM (Y/N))

## CCc1cnn2c(NCc3ccc[n+]([O-])c3)cc(N3CCCC[C@H]3CCO)nc12 [Dinaciclib]
[1]; BV2, 10 μM
  Inhibition of mouse microglial phagocytosis at 10 μM (<70% control): Y (The compound was found to inhibit phagocytosis (response threshold: <70% control) when murine immortalized microglial cells were dosed at 10 μM (Y: yes))
[3]; HMC3, 10 μM
  Stimulation of human microglial phagocytosis at 10 μM (>150% control): Y (The compound was found to stimulate phagocytosis (response threshold: >150% control) when human immortalized microglial cells were dosed at 10 μM (Y: yes))
[4]; BV2, 10 μM
  Mouse microglial cytotoxicity at 10 μM (<70% control): Y (The compound was found to be cytotoxic (cell count threshold: <70% control) when murine immortalized microglial cells were dosed at 10 μM (Y: yes))
[5]
  Human microglial cytotoxicity at 10 μM (<70% control): Y (The compound was found to be cytotoxic (cell count threshold: <70% control) when human immortalized microglial cells were dosed at 10 μM (Y: yes))
[2]; gene target CDK9, ref PubMed 20663931, 25289887, 21768779
  Reported on-target biochemical potency: 4 nM
physchem
  solubility kinetic: 143 µM (≈ 56.8 µg/mL)
